Assay results reported in patent publication US20210293825A1, “METHODS FOR PRECISION THERAPEUTIC TARGETING OF HUMAN CANCER CELL MOTILITY AND KITS THEREOF” (UNITED STATES GOVERNMENT AS REPRESENTED BY THE DEPARTMENT …, priority 2018, published 2021).

Experiments:
[1] = test system: human prostate, breast, colon and lung cancer cells; assay: Single cell migration (motility) assay; format: cell-based; conditions: PC3-M cells, 10 μM, three days
From the text: FIG. 1a is a schematic flow of probe synthesis and development strategy. […] Values are mean±SEM of a single experiment in replicates of N=4, with similar findings in multiple separate experiments (also N=4). […] Values are mean±SEM of a single experiment in replicates of N=24, with similar findings in a separate experiment (also N=24). *Denotes Student's t test P value <0.05, compared to controls. […] Values are mean±SEM from N>2 separate experiments, each in replicates of N=3. […] Values are the mean±SD number of total, CFU-GM, CFU-GEMM or BFU-E colonies at 14 days after treatment with KBU2046, from a single experiment in replicates of N=2. […] Values are the mean±SD of a single experiment, with similar results seen in a separate experiment, both in replicates of N=2.
Cell Migration Assays. Single cell motility assays were conducted by adding 10^4 cells to 35 mm tissue culture dishes (BD Falcon) coated with collagen I (BD Biosciences), incubating at 37° C. in 5% CO2, performing time-lapse imaging using a Biostation (Nikon Instruments), tracking the path of N≥35 cells using ImageJ software and the Manual Tracker plug-in, and using Chemotaxis and Migration Tool plug-in for data analysis.

[2] = test system: array of over 9,000 human proteins; assay: ProtoArray Human Protein Microarray binding assay
Method: (§1) PC3-M cells were pre-treated with 10 μM KBU2046 or with KBU2046-biotin for three days, and single cell motility assays conducted. Data are the mean±SEM of a single experiment of N≥24 cells; * denotes Student's 2-sided t-test p-value </=0.05 compared to control. […] PC3-M cells were labeled with 1 μM KBU2046-biotin+/−10 μM free KBU2046, followed by detection with FITC-streptavidin, and visualization by fluorescent microscopy (with equal exposure times). […] KBU2046-biotin was hybridized to ProtoArray® Human Protein Microarray's at 0.5 and 10 μM with and without 10 fold excess free KBU2046.
Protein Microarray Binding Assay. The ProtoArray® assay, using the Human Protein Microarray platform, was performed by Invitrogen.
First, the positive control used in protein arrays was staurosporine.

[3] = test system: PC3-M cells; assay: KBU2046-biotin labelling of cells (FITC-streptavidin); format: cell-based, human; conditions: 1 μM KBU2046-biotin +/- 10 μM free KBU2046
Method: as §1

[4] = target: recombinant CSRP1 (Homo sapiens, UniProt P21291); assay: Pull down of recombinant CSRP1 by KBU2046-biotin; format: binding
Chain of recombinant CSRP1 (P21291 whole entry): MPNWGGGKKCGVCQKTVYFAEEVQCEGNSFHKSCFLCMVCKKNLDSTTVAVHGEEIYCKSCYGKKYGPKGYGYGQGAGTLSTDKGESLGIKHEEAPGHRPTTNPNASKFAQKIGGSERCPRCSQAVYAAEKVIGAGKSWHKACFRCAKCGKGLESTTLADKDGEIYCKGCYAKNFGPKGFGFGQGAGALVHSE
Method: This yielded 3 proteins, shown in table, for an initial hit rate of 0.03%. Next, free KBU2046 was needed to inhibit binding by >75%. Of the two remaining candidates, isovaleryl-CoA dehydrogenase (ICD) was eliminated. […] Cysteine and glycine-rich protein 1 (CSRP1) was deemed the top protein, though its binding characteristics at 10 μM+free KBU2046 were similar to ICD, albeit not as extreme.

[5] = test system: PC3-M cells; assay: Boyden chamber cell invasion assay, PC3-M cells; format: cell-based, human; conditions: 10 μM compound, 3 days
Method: Following the synthetic strategy outlined in FIG. 1a, 4′,5,7-trihydroxyisoflavone was used as the chemical scaffold. […] Note, demethylation within the cell cannot be predicted. Therefore, the loss of function was considered to be informative for methylated compounds. […] This adds further evidence of the importance of the C4′-hydroxyl for activity. […] For cell invasion, PC3-M cells were treated with 10 μM compound for a total of 3 days, and cell invasion assays were run at the end of the 3 day period, in the presence of compound. Values are the mean±SEM of three separate experiments, each run in replicates of N=3. […] Values are the mean±SEM of a single experiment, in replicates of N=4, repeated at least once (also N=4). […] The initial structure-activity relationship (SAR) data informed the second round of compound synthesis. […] Compared to 4′,5,7-trihydroxyisoflavone, KBU2046 is non-planar, lacks hydroxyl groups, and particularly those that mediate ER binding, is halogen-substituted, and has a distinctly different biological profile. These characteristics place KBU2046 in a chemically distinct class, compared to the starting compound.
Cell Invasion Assays. Boyden chamber cell invasion assays were performed as previously described^9, using either denatured collagen (BD Biosciences) or type IV human collagen (BD Biosciences), with the experiments repeated, each in N=4 replicates. In some experiments, as indicated, cells were transfected with an expression plasmid, using Lipofectamine 2000™ (Invitrogen), or with siRNA, using DharmaFect Duo (Thermo Scientific) and co-transfected with β-Galactosidase (Plasmid pCMV⋅SPORT-βgal; Life Technology).
The initial round of synthesis was designed to examine the removal of individual chemical fragments. In this manner, the importance of these functional groups in mediating efficacy (inhibition of cell invasion) could be determined. […] Initial assays were performed with PC3 and PC3-M cells. However, as these studies yielded similar findings, subsequent screening assays utilized only PC3-M cells. In designing chemical synthetic routes, priority was given to efficacy and toxicity parameters. […] These additional design features included removal of fragments that mediated genistein binding to the estrogen receptor (ER), as determined by ER-genistein 3D x-ray crystal structures (Protein Data Base IDs: 1X7R and 1X7J, for crystal structures of ERα and ERβ with bound genistein, respectively). These features also included removal of chemical fragments that are considered to increase susceptibility to rapid metabolism, for example by the cytochrome P450 (CYP) pathway. The final feature involved incorporation of chemical characteristics previously shown to be associated with effective drugs and which together generally impart more favorable pharmacologic properties, including those described by Lipinski et al. (Lipinski, C. A. et al., Adv Drug Deliv Rev 46, 3-26 (2001)).

[6] = test system: protein phosphorylation in PC3-M and PC3 cells; assay: KinomeView phospho-motif antibody screen; format: cell-based, human; conditions: 10 μM, 3 days, ±TGFβ
From the text: Seeking to identify KBU2046's biological target(s), alternative methods were pursued. The KinomeView® panel of antibodies (Cell Signaling Technology, Inc.) detect established protein phosphorylation motifs, and were used to probe for KBU2046-induced changes in protein phosphorylation (FIG. 4a and FIG. 17). Phosphoprotein changes that met the following criteria were prioritized: were induced in cells in vitro as well as in tumors of treated mice (from FIG. 2a), that counteracted transforming growth factor β (TGFβ)-induced effects, and that were reproducible. TGFβ is ubiquitous in vivo, is known to increase PCa cell invasion (Huang, X. et al., Cancer Research 65, 3470-8 (2005)), and KBU2046's anti-invasion efficacy remains in spite of TGFβ-stimulated increases in cell invasion (FIG. 18). Genistein was evaluated under identical treatment conditions for comparison. […] In tumors of treated animals KBU2046 had this same effect on this 83 kDa protein band (green arrow in FIG. 17a). The high molecular selectivity of KBU2046 was further supported by its failure to inhibit over 400 different protein kinases and 20 phosphatases examined, in three different in vitro assay systems (see, Example 1).
Phospho-proteomic Analysis. The Kinoview™ and PhosphoScan™ assays were performed by Cell Signaling Technology Inc. […]

[7] = test system: human prostate cells (PC3, PC3-M, 1532NPTX, 1542NPTX, 1532CPTX, 1542CPTX); conditions: nanomolar concentrations; cited from earlier work
[8] = test system: human PCa PC3-M cell orthotopic implants; conditions: murine orthotopic model; cited from earlier work
[9] = target: T1, MKK4 (Homo sapiens, UniProt P45985, S257E/T261E); conditions: low nanomolar concentrations; cited from earlier work
T1 sequence (P45985 37-399 S257E/T261E): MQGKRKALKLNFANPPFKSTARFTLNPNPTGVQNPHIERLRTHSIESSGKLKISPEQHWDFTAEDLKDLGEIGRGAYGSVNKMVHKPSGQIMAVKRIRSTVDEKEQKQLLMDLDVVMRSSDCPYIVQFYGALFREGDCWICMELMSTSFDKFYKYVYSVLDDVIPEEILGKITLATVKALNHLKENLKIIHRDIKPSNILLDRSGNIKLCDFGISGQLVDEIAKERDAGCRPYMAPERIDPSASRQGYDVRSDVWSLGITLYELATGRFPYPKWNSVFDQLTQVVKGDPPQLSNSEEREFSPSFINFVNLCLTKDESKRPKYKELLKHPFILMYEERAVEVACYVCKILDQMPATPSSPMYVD

[10] = test system: phosphorylation of p38 MAPK or of HSP27; conditions: cited from earlier work
[11] = test system: matrix metalloproteinase 2 (MMP-2) expression; conditions: prospective human trial; cited from earlier work

## O=C(CCCC[C@@H]1SC[C@@H]2NC(=O)N[C@@H]21)NCCOCCOCCOCCOc1ccc2c(c1)OCC(c1ccc(F)cc1)C2=O (stereo partly drawn) [KBU2046-biotin]
[1]
  single cell motility: biologically active
[2]
  binding to HSP90β and CDC37 on the protein arrays: not bound
  binding to protein arrays: lack of binding
[2]; 0.5 and 10 μM
  initial hit rate: 0.03%
[2]; 0.5 and 10 μM, absence of free KBU2046
  number of proteins meeting binding criteria: 3
[3]
  labelling of cells: labels permeablized cells in a manner that can be competed off
[4]
  pull down of recombinant CSRP1: no evidence of such was observed

## O=c1c(-c2ccc(O)cc2)coc2cc(O)cc(O)c12 [genistein, 4′,5,7-trihydroxyisoflavone]
[5]
  effect on cell invasion: had anti-invasion efficacy
[6]
  changes in protein phosphorylation: induced widespread changes in protein phosphorylation
[7]
  inhibition of human PCa cell invasion in vitro: inhibit human prostate cancer (PCa) cell invasion in vitro
[8]
  inhibition of metastasis: inhibit
[9]
  inhibition of MKK4 kinase activity: inhibited the kinase activity
[10]
  downstream phosphorylation of p38 MAPK and HSP27: inhibiting downstream phosphorylation of p38 MAPK
[11]
  MMP-2 expression in prostate tissue: downregulates matrix metalloproteinase 2 (MMP-2) expression in prostate tissue

## CN[C@@H]1C[C@H]2O[C@@](C)([C@@H]1OC)n1c3ccccc3c3c4c(c5c6ccccc6n2c5c31)C(=O)NC4 [staurosporine, reference compound]
[2]; positive control
  number of proteins bound at levels >/=10 fold above background: 214
